{"source": "patent US20240000871A1", "about": "“Lactobacillus gasseri capable of alleviating and treating hyperuricemia” (Jiangnan University, priority 2020, published 2024)", "test_system": "fecal short-chain fatty acids", "assay": "Fecal short-chain fatty acids of mice with hyperuricemia", "type": "in vivo", "conditions": "feces at the end of the experiment", "method": "24 healthy male KM mice with the weight of 38 to 44 g were randomly divided into four groups after a week of acclimatization, namely a control group, a hyperuricemia model group, an L. gasseri CCFM1133 intervention group (CCFM1133) and an allopurinol intervention group (allopurinol). Except the control group, 500 mg/kg BW hypoxanthine was given to the other groups every day by intragastric administration, and 100 mg/kg BW oteracil potassium was intraperitoneally injected to the other groups every day. At 1 h before processing with hypoxanthine and oteracil potassium, 0.4 mL of 30 g/L sucrose (a control solvent) was given to the control group and the hyperuricemia model group, L. gasseri CCFM1133 bacterial suspension (30 g/L sucrose solution containing L. gasseri CCFM1133 thallus) with the concentration of 1×10^9 CFU/mouse was given to the L. gasseri CCFM1133 intervention group, and 5 mg/kg BW allopurinol was given to the allopurinol group. […]\nThe short-chain fatty acids were separated by using an Rtx-Wax column. The short-chain fatty acids (acetic acid, propionic acid, isobutyric acid, butyric acid, isovaleric acid and valeric acid) were detected in a full scanning mode (the mass-to-charge ratio scanning range is 33 to 110). Characteristic ions of analyte standards were selected for quantitative analysis."}
{"smiles": "Oc1ncnc2[nH]ncc12", "note": "[allopurinol]", "values": [{"measurement": "Effect on fecal short-chain fatty acid levels (acetic, propionic, isobutyric, butyric, isovaleric and valeric acid)", "result": "does not have much of the effect"}]}
